From patent US10016498B2, “D-amino acid derivative-modified peptidoglycan and methods of use thereof” (priority 2012, dated 2018) come the findings set out here.

One assay relates to E. coli PG. Format: cell-based, Escherchia coli.
The test system of assay [1] is L. monocytogenes PG. The assay can be described thus: HPLC and mass spectrometry of muropeptides from purified PG. Format: cell-based. An excerpt:
Having ruled out other potential sites of D-alanine derivative labeling, direct evidence of its incorporation into PG was sought. PG comprises a repeating disaccharide to which is conjugated a short peptide, termed the stem peptide (FIG. 1A). Although newly synthesized PG stem peptide usually terminates in D-alanine-D-alanine, diverse bacterial phyla produce and incorporate D-amino acids other than D-alanine into those positions. (17, 18) The process is flexible; various natural and unnatural D-amino acids appear to incorporate, albeit at varying efficiencies. […] After digesting the PG with muramidase, HPLC was used to detect muropeptides by absorbance at either 204 nm (to visualize all species) or 500 nm (to identify fluorophore-containing fragments). […] PG samples from E. coli incubated in azDala alone were analyzed; and it was determined that the fraction of D-alanine that had been replaced with the synthetic analog was roughly 50% of the tetrapeptide pool and 15% of the total muropeptide population.
FIGS. 2A-D. AlkDala incorporates into L. monocytogenes PG. […] Absorbance at 204 nm, blue, and at 500 nm, red, are shown. […] The most abundant peaks detected at 500 nm were collected and subjected to analysis by mass spectrometry, (D), to identify the chemical structure of the alkDala-containing muropeptides conjugated to azido-fluor 488, (B).

The subject of assay [2] is bacteria (E. coli, Bacillus subtilis, L. monocytogenes, Mycobacterium tuberculosis, Streptomyces coelicolor, Corynebacterium glutamicum). Format: cell-based.
Another assay deals with L. monocytogenes. The format is cell-based.
Assay [3] concerns peptidoglycan of gram-positive bacteria. As to the kind of experiment: Incorporation of cyclooctyne D-amino acids into peptidoglycan, azido-PEG3-carboxyrhodamine labeling, flow cytometry and microscopy. The format is cell-based, L. monocytogenes. The procedure:
With all three amino acids in hand, their incorporation into the peptidoglycan of gram-positive bacteria was tested. The bacteria were grown for one-doubling time in the presence of 5 mM unnatural amino acids 30 to 32. The cells were then washed to remove excess amino acid and labeled with 20 μM of the commercially available azido-PEG3-carboxyrhodamine. This fluorophore efficiently labels terminal-alkyne-tagged peptidoglycan under copper-click conditions. The cells were then washed to remove excess probe, fixed, and studied by flow-cytometry and microscopy.
To further confirm that peptidoglycan was being labeled, a competition experiment was performed.

Assay [4] concerns L. monocytogenes in J774 macrophages. The assay can be described thus: alkDala labeling of intracellular bacteria during J774 macrophage infection. The format is cell-based. The following applies: 50 mM alkDala, azido-fluor 488.
For assay [5], the system named is L. monocytogenes PG. As to the kind of experiment: alkDala labeling of newly synthesized PG: growth phase, vancomycin-BODIPY colocalization, antibiotic treatment. Format: cell-based.

With `C#CC[C@@H](N)C(=O)O` [alkDala, R-propargylglycine], the “position of insertion in the PG stem peptide” value with E. coli PG was “fourth position”; in the assay on L. monocytogenes PG [1] (L. monocytogenes) it was “fifth position”. The “change of PG structure compared to D-alanine incubation” value with L. monocytogenes PG [1] (long periods of incubation) is given as “did not appreciably change PG structure”. Also, in assay [2], the “cell surface labeling by microscopy” value is listed as “Clear cell surface labeling of all species tested”. Further, in the assay with L. monocytogenes, the “labeling of dal- dat- D-alanine auxotroph compared to wildtype” value was “labeled more strongly”. The “labeling of listeria lacking PBP5 versus wild type” value in assay [3] was “enhanced labeling over wild type”. For the same compound, the “site of labeling of intracellular L. monocytogenes” value in assay [4] (longer pulse (3.5 hrs)) is “at the septa and poles”; in assay [4] (short pulse (last 30 minutes)), “labeled more at the septa”. In addition, the “colocalization of signal with vancomycin-BODIPY, a marker of nascent PG” value in the assay on L. monocytogenes PG [5] (one generation, azido-fluor 545) was “colocalized”.

`C[C@@H]1O[C@@H]1P(=O)(O)O` [fosfomycin]: in the assay on L. monocytogenes PG [5], the “effect of antibiotic treatment on alkDala labeling” value (from here on “effect of antibiotic treatment”) is recorded as “completely abrogated”.

For `C[C@@H](O)[C@H]1C(=O)N2C(C(=O)O)=C(S[C@@H]3CN[C@H](C(=O)N(C)C)C3)[C@H](C)[C@H]12` [meropenem], the “effect of antibiotic treatment” value with L. monocytogenes PG [5] is “much weaker effect”.

Turning to penicillin, in the assay with L. monocytogenes PG [5], the “effect of antibiotic treatment” value is “much weaker effect”.
